Data reported in article PMC9481151, “Discovery of new symmetrical and asymmetrical nitrile-containing 1,4-dihydropyridine derivatives as dual kinases and P-glycoprotein inhibitors: synthesis, in vitro assays, and in silico studies” (Journal of Enzyme Inhibition and Medicinal Chemistry, 2022).
One block for each compound: values may come before it.

How the values were obtained:
HER-2 = HER-2 (Homo sapiens, UniProt P04626); design: method as in PMID 34146919; details: introduction; cited from earlier work
Chain of HER-2 (P04626 23-1255): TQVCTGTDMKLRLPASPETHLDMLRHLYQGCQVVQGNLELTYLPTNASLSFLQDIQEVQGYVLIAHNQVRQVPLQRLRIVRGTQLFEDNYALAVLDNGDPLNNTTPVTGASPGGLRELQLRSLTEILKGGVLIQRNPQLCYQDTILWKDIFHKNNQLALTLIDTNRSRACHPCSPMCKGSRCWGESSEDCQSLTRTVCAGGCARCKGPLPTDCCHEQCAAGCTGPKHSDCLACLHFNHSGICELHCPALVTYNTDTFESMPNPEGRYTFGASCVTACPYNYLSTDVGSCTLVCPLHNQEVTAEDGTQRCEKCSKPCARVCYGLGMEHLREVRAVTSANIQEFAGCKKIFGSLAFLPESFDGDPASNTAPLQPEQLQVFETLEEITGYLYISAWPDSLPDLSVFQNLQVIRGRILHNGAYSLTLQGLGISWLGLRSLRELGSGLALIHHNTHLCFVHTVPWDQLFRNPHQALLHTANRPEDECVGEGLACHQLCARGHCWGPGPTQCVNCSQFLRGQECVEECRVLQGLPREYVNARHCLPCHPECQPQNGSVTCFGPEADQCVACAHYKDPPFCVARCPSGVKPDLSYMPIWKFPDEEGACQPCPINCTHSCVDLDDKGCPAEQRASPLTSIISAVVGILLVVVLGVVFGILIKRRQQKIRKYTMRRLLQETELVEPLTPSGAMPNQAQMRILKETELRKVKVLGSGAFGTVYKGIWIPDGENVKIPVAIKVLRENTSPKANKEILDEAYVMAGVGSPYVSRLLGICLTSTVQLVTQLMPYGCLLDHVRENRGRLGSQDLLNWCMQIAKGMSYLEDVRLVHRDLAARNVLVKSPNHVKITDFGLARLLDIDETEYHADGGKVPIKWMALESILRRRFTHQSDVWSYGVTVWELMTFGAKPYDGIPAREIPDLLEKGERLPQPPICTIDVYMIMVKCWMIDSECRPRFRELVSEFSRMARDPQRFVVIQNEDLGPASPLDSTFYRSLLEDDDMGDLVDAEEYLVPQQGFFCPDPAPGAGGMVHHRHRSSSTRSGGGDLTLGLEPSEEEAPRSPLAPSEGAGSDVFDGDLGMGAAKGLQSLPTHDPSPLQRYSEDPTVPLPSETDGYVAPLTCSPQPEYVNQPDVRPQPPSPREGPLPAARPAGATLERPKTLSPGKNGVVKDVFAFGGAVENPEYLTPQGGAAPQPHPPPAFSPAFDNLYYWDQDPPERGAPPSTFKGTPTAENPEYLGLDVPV

EGFR = EGFR (Homo sapiens, UniProt P00533); design: method as in PMID 34146919; details: introduction; cited from earlier work
Chain of EGFR (P00533 25-1210): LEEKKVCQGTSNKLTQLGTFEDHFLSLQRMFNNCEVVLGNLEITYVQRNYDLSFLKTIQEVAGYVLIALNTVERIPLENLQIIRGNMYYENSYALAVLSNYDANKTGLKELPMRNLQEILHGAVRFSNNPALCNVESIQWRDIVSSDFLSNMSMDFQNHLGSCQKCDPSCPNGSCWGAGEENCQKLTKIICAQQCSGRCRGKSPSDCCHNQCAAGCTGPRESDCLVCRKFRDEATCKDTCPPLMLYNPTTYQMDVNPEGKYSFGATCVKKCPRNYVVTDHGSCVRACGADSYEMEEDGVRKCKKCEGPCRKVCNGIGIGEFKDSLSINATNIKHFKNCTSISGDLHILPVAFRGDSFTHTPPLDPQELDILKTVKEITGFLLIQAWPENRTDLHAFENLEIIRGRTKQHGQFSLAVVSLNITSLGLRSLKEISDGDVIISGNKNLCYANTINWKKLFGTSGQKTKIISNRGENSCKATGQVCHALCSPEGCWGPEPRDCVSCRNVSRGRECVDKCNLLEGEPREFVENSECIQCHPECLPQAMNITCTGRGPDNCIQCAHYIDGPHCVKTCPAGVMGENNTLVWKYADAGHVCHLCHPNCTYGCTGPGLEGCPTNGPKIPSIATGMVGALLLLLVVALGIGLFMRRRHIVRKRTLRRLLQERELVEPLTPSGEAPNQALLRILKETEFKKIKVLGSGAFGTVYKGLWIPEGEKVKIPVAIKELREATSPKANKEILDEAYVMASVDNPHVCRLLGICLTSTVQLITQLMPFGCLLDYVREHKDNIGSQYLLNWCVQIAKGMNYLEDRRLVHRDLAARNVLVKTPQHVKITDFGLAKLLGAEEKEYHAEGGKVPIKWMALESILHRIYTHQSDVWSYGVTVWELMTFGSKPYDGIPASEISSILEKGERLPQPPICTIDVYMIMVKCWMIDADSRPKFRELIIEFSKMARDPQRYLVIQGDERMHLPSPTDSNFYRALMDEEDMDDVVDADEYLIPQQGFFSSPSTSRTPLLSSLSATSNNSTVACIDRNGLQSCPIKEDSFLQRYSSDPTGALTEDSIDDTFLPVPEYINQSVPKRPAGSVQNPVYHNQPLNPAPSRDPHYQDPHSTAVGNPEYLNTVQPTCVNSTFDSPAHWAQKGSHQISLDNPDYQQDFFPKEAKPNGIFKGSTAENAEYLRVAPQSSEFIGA

BTK = BTK (Homo sapiens, UniProt Q06187); design: method as in PMID 34146919; details: introduction; cited from earlier work
Chain of BTK (Q06187 whole entry): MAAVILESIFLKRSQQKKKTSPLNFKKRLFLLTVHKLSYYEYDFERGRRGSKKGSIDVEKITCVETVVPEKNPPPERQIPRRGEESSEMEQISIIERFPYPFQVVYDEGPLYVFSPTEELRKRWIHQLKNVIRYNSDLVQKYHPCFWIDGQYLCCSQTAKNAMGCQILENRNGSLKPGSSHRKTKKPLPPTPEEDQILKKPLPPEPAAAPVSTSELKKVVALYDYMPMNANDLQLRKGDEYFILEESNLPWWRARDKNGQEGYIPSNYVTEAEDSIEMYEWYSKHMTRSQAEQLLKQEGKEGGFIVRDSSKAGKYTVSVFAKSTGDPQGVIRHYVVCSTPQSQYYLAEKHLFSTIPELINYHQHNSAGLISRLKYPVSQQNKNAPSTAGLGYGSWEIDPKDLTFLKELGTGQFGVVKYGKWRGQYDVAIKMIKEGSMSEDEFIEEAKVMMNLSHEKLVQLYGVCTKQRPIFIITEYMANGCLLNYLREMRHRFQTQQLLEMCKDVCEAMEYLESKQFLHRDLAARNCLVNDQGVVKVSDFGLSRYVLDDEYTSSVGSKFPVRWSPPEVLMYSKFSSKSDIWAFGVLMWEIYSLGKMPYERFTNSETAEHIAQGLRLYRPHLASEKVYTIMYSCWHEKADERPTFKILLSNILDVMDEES

CCRF-CEM = test: NCI single dose (10 µM) SRB screen; format: cell-based, human; details: leukaemia, 48 h
HL-60(TB) = test: NCI single dose (10 µM) SRB screen; format: cell-based, human; details: leukaemia, 48 h
786-0 = test: NCI single dose (10 µM) SRB screen; format: cell-based, human; details: renal cancer, 48 h
ACHN = test: NCI single dose (10 µM) SRB screen; format: cell-based, human; details: renal cancer, 48 h
Escherichia coli = test: Agar well diffusion method; details: relative to ciprofloxacin
NCI-H23 = test: NCI single dose (10 µM) SRB screen; format: cell-based, human; details: non-small cell lung cancer, 48 h
Candida albicans = test: Agar well diffusion method; details: relative to clotrimazole
EKVX = test: NCI single dose (10 µM) SRB screen; format: cell-based, human; details: non-small cell lung cancer, 48 h
HCC-2998 = test: NCI single dose (10 µM) SRB screen; format: cell-based, human; details: colon cancer, 48 h
MDA-MB-231 = test: NCI single dose (10 µM) SRB screen; format: cell-based, human; details: breast cancer, 48 h
OVCAR-4 = test: NCI single dose (10 µM) SRB screen; format: cell-based, human; details: ovarian cancer, 48 h
PC-3 = test: NCI single dose (10 µM) SRB screen; format: cell-based, human; details: prostate cancer, 48 h
MCF7 = test: NCI single dose (10 µM) SRB screen; format: cell-based, human; details: breast cancer, 48 h
OVCAR-8 = test: NCI single dose (10 µM) SRB screen; format: cell-based, human; details: ovarian cancer, 48 h
MDA-MB-435 = test: NCI single dose (10 µM) SRB screen; format: cell-based, human; details: melanoma, 48 h
U251 = test: NCI single dose (10 µM) SRB screen; format: cell-based, human; details: CNS cancer, 48 h
CAKI-1 = test: NCI single dose (10 µM) SRB screen; format: cell-based, human; details: renal cancer, 48 h
A549/ATCC = test: NCI single dose (10 µM) SRB screen; format: cell-based, human; details: non-small cell lung cancer, 48 h
SR = test: NCI single dose (10 µM) SRB screen; format: cell-based, human; details: leukaemia, 48 h
RPMI-8226 = test: NCI single dose (10 µM) SRB screen; format: cell-based, human; details: leukaemia, 48 h
MALME-3M = test: NCI single dose (10 µM) SRB screen; format: cell-based, human; details: melanoma, 48 h
Pseudomonas aeruginosa = test: Agar well diffusion method; details: relative to ciprofloxacin
UO-31 = test: NCI single dose (10 µM) SRB screen; format: cell-based, human; details: renal cancer, 48 h
NCI-H226 = test: NCI single dose (10 µM) SRB screen; format: cell-based, human; details: non-small cell lung cancer, 48 h
SN12C = test: NCI single dose (10 µM) SRB screen; format: cell-based, human; details: renal cancer, 48 h
UACC-62 = test: NCI single dose (10 µM) SRB screen; format: cell-based, human; details: melanoma, 48 h
HOP-92 = test: NCI single dose (10 µM) SRB screen; format: cell-based, human; details: non-small cell lung cancer, 48 h
TK-10 = test: NCI single dose (10 µM) SRB screen; format: cell-based, human; details: renal cancer, 48 h
RXF 393 = test: NCI single dose (10 µM) SRB screen; format: cell-based, human; details: renal cancer, 48 h
SW-620 = test: NCI single dose (10 µM) SRB screen; format: cell-based, human; details: colon cancer, 48 h
NCI-H522 = test: NCI single dose (10 µM) SRB screen; format: cell-based, human; details: non-small cell lung cancer, 48 h
SK-MEL-2 = test: NCI single dose (10 µM) SRB screen; format: cell-based, human; details: melanoma, 48 h
SF-268 = test: NCI single dose (10 µM) SRB screen; format: cell-based, human; details: CNS cancer, 48 h
IGROV1 = test: NCI single dose (10 µM) SRB screen; format: cell-based, human; details: ovarian cancer, 48 h
SK-MEL-28 = test: NCI single dose (10 µM) SRB screen; format: cell-based, human; details: melanoma, 48 h
NCI-H460 = test: NCI single dose (10 µM) SRB screen; format: cell-based, human; details: non-small cell lung cancer, 48 h
A498 = test: NCI single dose (10 µM) SRB screen; format: cell-based, human; details: renal cancer, 48 h
HS578T = test: NCI single dose (10 µM) SRB screen; format: cell-based, human; details: breast cancer, 48 h
SNB-19 = test: NCI single dose (10 µM) SRB screen; format: cell-based, human; details: CNS cancer, 48 h
SK-OV-3 = test: NCI single dose (10 µM) SRB screen; format: cell-based, human; details: ovarian cancer, 48 h
UACC-257 = test: NCI single dose (10 µM) SRB screen; format: cell-based, human; details: melanoma, 48 h
HCT-15 = test: NCI single dose (10 µM) SRB screen; format: cell-based, human; details: colon cancer, 48 h
K-562 = test: NCI single dose (10 µM) SRB screen; format: cell-based, human; details: leukaemia, 48 h
SNB-75 = test: NCI single dose (10 µM) SRB screen; format: cell-based, human; details: CNS cancer, 48 h
M14 = test: NCI single dose (10 µM) SRB screen; format: cell-based, human; details: melanoma, 48 h
HOP-62 = test: NCI single dose (10 µM) SRB screen; format: cell-based, human; details: non-small cell lung cancer, 48 h
NCI-H322M = test: NCI single dose (10 µM) SRB screen; format: cell-based; details: non-small cell lung cancer, 48 h
BT-549 = test: NCI single dose (10 µM) SRB screen; format: cell-based, human; details: breast cancer, 48 h
DU-145 = test: NCI single dose (10 µM) SRB screen; format: cell-based, human; details: prostate cancer, 48 h
SK-MEL-5 = test: NCI single dose (10 µM) SRB screen; format: cell-based, human; details: melanoma, 48 h
Staphylococcus aureus = test: Agar well diffusion method; details: relative to ciprofloxacin
T-47D = test: NCI single dose (10 µM) SRB screen; format: cell-based, human; details: breast cancer, 48 h
NCI/ADR-RES = test: NCI single dose (10 µM) SRB screen; format: cell-based, human; details: ovarian cancer, 48 h
SF-539 = test: NCI single dose (10 µM) SRB screen; format: cell-based, human; details: CNS cancer, 48 h
Bacillus subtilis = test: Agar well diffusion method; details: relative to ciprofloxacin
OVCAR-5 = test: NCI single dose (10 µM) SRB screen; format: cell-based, human; details: ovarian cancer, 48 h
MOLT-4 = test: NCI single dose (10 µM) SRB screen; format: cell-based, human; details: leukaemia, 48 h
COLO 205 = test: NCI single dose (10 µM) SRB screen; format: cell-based, human; details: colon cancer, 48 h
Aspergillus flavus = test: Agar well diffusion method
HCT-116 = test: NCI single dose (10 µM) SRB screen; format: cell-based, human; details: colon cancer, 48 h
NCI 60 cancer cell lines = test: NCI single dose (10 µM) SRB screen, mean over panel; format: cell-based, human; details: mean over 60 cell lines, 48 h
LOX IMVI = test: NCI single dose (10 µM) SRB screen; format: cell-based, human; details: melanoma, 48 h
HT29 = test: NCI single dose (10 µM) SRB screen; format: cell-based, human; details: colon cancer, 48 h
OVCAR-3 = test: NCI single dose (10 µM) SRB screen; format: cell-based, human; details: ovarian cancer, 48 h
MDA-MB-468 = test: NCI single dose (10 µM) SRB screen; format: cell-based, human; details: breast cancer, 48 h
SF-295 = test: NCI single dose (10 µM) SRB screen; format: cell-based, human; details: CNS cancer, 48 h
KM12 = test: NCI single dose (10 µM) SRB screen; format: cell-based, human; details: colon cancer, 48 h

SMILES: CCOC(=O)C1=C(C)NC(C)=C(C(=O)OCC)C1c1ccc2c(c1)Cc1ccccc1-2 [Compound II]
IC50 (HER-2): 84.5 nM
IC50 (EGFR): 71.8 nM
IC50 (BTK): 68.8 nM

melting point: 157 to 159 °C
SMILES: COC(=O)C1=C(C)NC(C)=C(C(=O)OC(C)(C)C)C1c1cccc(C#N)c1 (racemic) [Compound 2c, (±)-3-Tert-butyl 5-Methyl 4-(3-cyanophenyl)-2,6-dimethyl-1,4-dihydropyridine-3,5-dicarboxylate]
GI% CCRF-CEM (CCRF-CEM): – (Only GI% ≥ 10 are shown)
GI% HL-60(TB) (HL-60(TB)): – (Only GI% ≥ 10 are shown)
GI% 786-0 (786-0): – (Only GI% ≥ 10 are shown)
GI% ACHN (ACHN): – (Only GI% ≥ 10 are shown)
% activity index, E. coli (Escherichia coli): – (Values below 25 are of limited value and not shown as they refer either to inactive or non-diffusing compounds)
GI% NCI-H23 (NCI-H23): – (Only GI% ≥ 10 are shown)
% activity index, C. albicans (Candida albicans): – (Values below 25 are of limited value and not shown as they refer either to inactive or non-diffusing compounds)
GI% EKVX (EKVX): – (Only GI% ≥ 10 are shown)
GI% HCC-2998 (HCC-2998): – (Only GI% ≥ 10 are shown)
GI% MDA-MB-231 (MDA-MB-231): – (Only GI% ≥ 10 are shown)
GI% OVCAR-4 (OVCAR-4): – (Only GI% ≥ 10 are shown)
GI% PC-3 (PC-3): 18%
GI% MCF7 (MCF7): 13%
GI% OVCAR-8 (OVCAR-8): – (Only GI% ≥ 10 are shown)
GI% MDA-MB-435 (MDA-MB-435): – (Only GI% ≥ 10 are shown)
GI% U251 (U251): – (Only GI% ≥ 10 are shown)
GI% CAKI-1 (CAKI-1): 15%
GI% A549/ATCC (A549/ATCC): – (Only GI% ≥ 10 are shown)
GI% SR (SR): 15%
GI% RPMI-8226 (RPMI-8226): 12%
GI% MALME-3M (MALME-3M): – (Only GI% ≥ 10 are shown)
% activity index, P. aeruginosa (Pseudomonas aeruginosa): – (Values below 25 are of limited value and not shown as they refer either to inactive or non-diffusing compounds)
GI% UO-31 (UO-31): – (Only GI% ≥ 10 are shown)
GI% NCI-H226 (NCI-H226): – (Only GI% ≥ 10 are shown)
GI% SN12C (SN12C): – (Only GI% ≥ 10 are shown)
GI% UACC-62 (UACC-62): – (Only GI% ≥ 10 are shown)
GI% HOP-92 (HOP-92): 10%
GI% TK-10 (TK-10): – (Only GI% ≥ 10 are shown)
GI% RXF 393 (RXF 393): – (Only GI% ≥ 10 are shown)
GI% SW-620 (SW-620): – (Only GI% ≥ 10 are shown)
GI% NCI-H522 (NCI-H522): – (Only GI% ≥ 10 are shown)
GI% SK-MEL-2 (SK-MEL-2): – (Only GI% ≥ 10 are shown)
GI% SF-268 (SF-268): – (Only GI% ≥ 10 are shown)
GI% IGROV1 (IGROV1): – (Only GI% ≥ 10 are shown)
GI% SK-MEL-28 (SK-MEL-28): – (Only GI% ≥ 10 are shown)
GI% NCI-H460 (NCI-H460): – (Only GI% ≥ 10 are shown)
GI% A498 (A498): – (Only GI% ≥ 10 are shown)
GI% HS578T (HS578T): – (Only GI% ≥ 10 are shown)
GI% SNB-19 (SNB-19): – (Only GI% ≥ 10 are shown)
GI% SK-OV-3 (SK-OV-3): – (Only GI% ≥ 10 are shown)
GI% UACC-257 (UACC-257): – (Only GI% ≥ 10 are shown)
GI% HCT-15 (HCT-15): – (Only GI% ≥ 10 are shown)
GI% K-562 (K-562): – (Only GI% ≥ 10 are shown)
GI% SNB-75 (SNB-75): 27%
GI% M14 (M14): – (Only GI% ≥ 10 are shown)
GI% HOP-62 (HOP-62): – (Only GI% ≥ 10 are shown)
GI% NCI-H322M (NCI-H322M): – (Only GI% ≥ 10 are shown)
GI% BT-549 (BT-549): – (Only GI% ≥ 10 are shown)
GI% DU-145 (DU-145): – (Only GI% ≥ 10 are shown)
GI% SK-MEL-5 (SK-MEL-5): – (Only GI% ≥ 10 are shown)
% activity index, S. aureus (Staphylococcus aureus): – (Values below 25 are of limited value and not shown as they refer either to inactive or non-diffusing compounds)
GI% T-47D (T-47D): 12%
GI% NCI/ADR-RES (NCI/ADR-RES): – (Only GI% ≥ 10 are shown)
GI% SF-539 (SF-539): – (Only GI% ≥ 10 are shown)
% activity index, B. subtilis (Bacillus subtilis): – (Values below 25 are of limited value and not shown as they refer either to inactive or non-diffusing compounds)
GI% OVCAR-5 (OVCAR-5): – (Only GI% ≥ 10 are shown)
GI% MOLT-4 (MOLT-4): – (Only GI% ≥ 10 are shown)
GI% COLO 205 (COLO 205): – (Only GI% ≥ 10 are shown)
zone of inhibition at 1000 µg/mL (Aspergillus flavus; Aspergillus flavus, 24 h, read-out: Diameter of inhibition zone, A. flavus): 7 mm
% activity index, A. flavus (Aspergillus flavus; relative to clotrimazole): 28%
GI% HCT-116 (HCT-116): – (Only GI% ≥ 10 are shown)
Mean GI% (NCI 60 cancer cell lines): 0%
GI% LOX IMVI (LOX IMVI): – (Only GI% ≥ 10 are shown)
GI% HT29 (HT29): – (Only GI% ≥ 10 are shown)
GI% OVCAR-3 (OVCAR-3): – (Only GI% ≥ 10 are shown)
GI% MDA-MB-468 (MDA-MB-468): – (Only GI% ≥ 10 are shown)
GI% SF-295 (SF-295): – (Only GI% ≥ 10 are shown)
GI% KM12 (KM12): – (Only GI% ≥ 10 are shown)
